Experimental findings from PubChem BioAssay AID179 (DTP/NCI, 2004) are described below.

The source made the active and inactive calls.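 The calls were made as follows: active = compounds giving half or more protection of infected cells from virus-caused growth loss, again on retest; inactive = the rest.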 Where a SMILES comes first, the peptide text is derived from it. [ ]: non-standard residue; d: D form. The star is where a group is joined. ξ: configuration not given here. Ac5c = NC1(C(=O)O)CCCC1; Cbz = O=C(OCc1ccccc1)*; ξS = NC(CO)C(=O)O; CH2Cl = ClC*

The test system of the assay is CEM cells HIV-1 protection, formazan growth assay. The assay is described as follows: NCI AIDS Antiviral Assay. The settings on record: for IC50: measured here: growth of uninfected CEM cells. Here is the method:
The ability of compounds to protect human CEM cells from HIV-1 infection is measured as a screen for new compounds capable of inhibiting the HIV virus. Five concentrations of drug were tested on uninfected and infected cells and cell growth was measured using a soluble formazan assay. […] Compounds that provided at least 50% protection were retested. Compounds that provided at least 50% protection on retest were listed as moderately active. Compounds that reproducibly provided 100% protection were listed as confirmed active. […] Note that the inability to provide protection could be due to toxicity.

In the case of `O=C1c2cccnc2S(=O)(=O)N1c1ccc(Oc2ccccc2)cc1`, the EC50 was greater than 200 µM and the IC50 is greater than 200 µM.
Regarding `CN1OC2OC(=O)OC2[C@H]1[C@H]1O[C@H](c2ccccc2)OC1(C)c1cc(OC(=O)c2ccccc2)ccc1OC(=O)c1ccccc1` (some centres not stated), the EC50 is greater than 2.34 µM and the IC50 is greater than 2.34 µM.
For `C=C(C)[C@@]1(OC(=O)c2cc([N+](=O)[O-])cc([N+](=O)[O-])c2)C[C@@H]2CCCC[C@@H]21`, the result was inactive.
As to `CC(=O)OC[C@]1(C)CCCC2(C)C1CCC1C=C(C)[C@H]3CCC12C3` (some centres not stated), the EC50 was greater than 107 µM and the half-maximal inhibitory concentration (IC50) is greater than 107 µM.
As to `C=C(CN(C)C)C(=O)c1cc(C)ccc1C`, the EC50 was greater than 200 µM and the IC50 was 11.2 µM.
`CN(C)c1cc(CNCCSC(c2ccccc2)(c2ccccc2)c2ccccc2)nc(CNCCSC(c2ccccc2)(c2ccccc2)c2ccccc2)c1`: the EC50 was greater than 200 µM and the concentration for half-maximal inhibition (IC50) was determined as 3.02 µM.
The matching figures for `CN1c2c(C(=O)Nc3nccs3)nn(-c3ccccc3)c2-c2ccccc2S1(=O)=O`: greater than 22.9 µM and greater than 22.9 µM.
In the same order, the values of `COc1ccc2c(c1)CCC1=C/C(=N\NC(N)=O)CCC12C` (configuration not stated) are greater than 63.1 µM and greater than 63.1 µM.
The matching figures for `O=C(O)Cc1ccccc1CCc1ccccc1Cl`: greater than 479 µM and 251 µM.
In the case of `O=C1C(C(c2ccccc2)N2CCOCC2)=C(O)C(c2ccccc2)N1c1ccccc1` (configuration not stated), the outcome was inactive.
In the case of `CC(=O)/C=C/CCC1CCC(=O)C1(C)C(=O)OC(C)(C)C` (configuration not stated), the EC50 is greater than 115 µM and the IC50 came to 39.8 µM.
The matching figures for `Cn1c2ccccc2c2n[nH]c(=S)nc21`: 55 µM and greater than 200 µM.
The matching figures for `CSS(=O)(=O)C(c1ccccc1)c1ccccc1`: greater than 112 µM and 49 µM.
Regarding `COc1cc(C)cc2c(-c3ccc(O)c4c(OC)cc(C)cc34)ccc(O)c12`, the EC50 was greater than 100 µM and the IC50 stood at 2.95 µM.
In the same order, the values of `CC(C)(C)C#COC(=O)c1ccccc1` are greater than 251 µM and greater than 251 µM.
The matching figures for `CCCCCCCCOCC(O)COC(=O)CCCCCCC` (configuration not stated): greater than 251 µM and 20.9 µM.
In the same order, the values of `Cc1nn(-c2ccccc2)c2c1CC(=O)Nc1ccccc1-2` are greater than 2 µM and 0.112 µM.
For `COc1cc(/C=C2\C(=O)N(c3cccc([N+](=O)[O-])c3)C(c3ccccc3)S2(=O)=O)cc(OC)c1OC` (configuration not stated), the result was inactive.
On to `CC12C(=O)OCC1C1CCC2C1` (configuration not stated), for which the EC50 is greater than 537 µM and the IC50 was greater than 537 µM.
For the molecule `CCOC(=O)/C(O)=C(/C(=O)OC)c1ccc(Cl)cc1`, the EC50 was greater than 427 µM and the IC50 was greater than 427 µM.
Turning to `COc1cc(N(CCC#N)CCC#N)ccc1/C(N=Nc1ccc(C)cc1)=N/NC(=O)c1cc(Br)ccc1O`, the EC50 is greater than 200 µM and the IC50 was found to be 12.6 µM.
As for `O=C1CCC2(C=Nc3ccccc32)C2Cc3ccccc3N12` (configuration not stated), the EC50 is greater than 13.2 µM and the IC50 is greater than 13.2 µM.
Take `CN(C)C(=S)SSC(=S)N(C)C.[Zn+2]`: the EC50 is greater than 200 µM and the half-inhibitory concentration (IC50) stood at 0.117 µM.
In the same order, the values of `O=S(c1ccc(Cl)cc1)S(=O)c1ccc(Cl)cc1` (configuration not stated) are greater than 22.4 µM and 18.2 µM.
For `CCOP(=O)(O)C1C(CO)OC(n2ccc(=O)[nH]c2=O)C1O` (configuration not stated), the EC50 is greater than 200 µM and the 50% inhibitory concentration (IC50) was greater than 200 µM.
Regarding `Cn1c2ccccc2c(=O)c2c(O)cc3c(c21)C1OCC(C)(O)C1O3` (configuration not stated), the EC50 was greater than 200 µM and the IC50 stood at 33.9 µM.
Take `CCC=C(c1cc(Cl)c(OC)c(C(=O)OC)c1)c1cc(Cl)c(OC)c(C(=O)OC)c1`: the EC50 is greater than 8.32 µM and the half-maximal inhibitory concentration (IC50) is greater than 8.32 µM.
On to `CC1=Nc2ccccc2C1C(Cc1ccccc1N)c1c(C)[nH]c2ccccc12` (configuration not stated), for which the result was inactive.
With `CC(=Nc1ccccc1C(=O)O)c1c(O)ccc2c(C)cc(=O)oc12`, the EC50 is greater than 107 µM and the IC50 was greater than 107 µM.
On to `Cn1c(C2CCCc3c2c2ccccc2n3C)cc2ccccc21` (configuration not stated), for which the EC50 is greater than 16.6 µM and the half-inhibitory concentration (IC50) is greater than 16.6 µM.
As to `COc1c(C=O)c2c(c(OC)c1OC)-c1ccc(OC)c(=O)cc1[C@@H](NC(C)=O)CC2`, the EC50 is greater than 0.2 µM and the IC50 came to 0.011 µM.
Consider `C=C=C(C)[Si](C)(C)C`, for which the EC50 is greater than 200 µM and the IC50 is greater than 200 µM.
With `c1ccc(-c2nc3ccccc3nc2SCc2cccnc2)cc1`, the EC50 is greater than 7.94 µM and the IC50 is greater than 7.94 µM.
Consider `Cc1cc(NC(=O)c2ccc(N=Nc3cc(S(=O)(=O)O)c4ccccc4c3O)cc2)ccc1N=Nc1ccc2cc(S(=O)(=O)O)cc(S(=O)(=O)O)c2c1`, for which the result was active.
Still for that read-out and setting: next, `CC(=O)NNc1nc(C)c(C(=O)NNC(=O)C(=O)Nc2ccc(Cl)cc2Cl)s1`: “inactive”.
For `COC1C2CC3C4(CCC5C6(C)CCCC53C(C14)N(C)C6)CC21CCC23C4C=C5C6=C(CCC5(CC42)C3O1)C1(C)CC(C6)CN(C)C1` (configuration not stated), the 50% effective concentration (EC50) is 0.38 µM and the IC50 is 18.6 µM.
Consider `CN1C(=O)CC2C(=O)N(Cc3ccccc3)C(=O)C2C1=O` (configuration not stated), for which the EC50 was greater than 347 µM and the half-inhibitory concentration (IC50) was greater than 347 µM.
Take `Cc1ccc(S(=O)(=O)NN=C2C(C)(C)CC2(C)C)cc1`: the EC50 was greater than 200 µM and the concentration for half-maximal inhibition (IC50) is greater than 200 µM.
Regarding `Cn1c(=O)c2ccccc2c2nc3ccccc3nc21`, the outcome was inactive.
For `CN1C(=O)c2ccccc2Cc2c(NCc3ccccc3)ncnc21`, the EC50 was greater than 89.1 µM and the IC50 came out at 19.1 µM.
In the same order, the values of `CC1=C(C(=O)Nc2ccc(Cl)c(C(=O)OC(C)C)c2)SCCO1` are 0.398 µM and 74.1 µM.
The matching figures for `CC(=O)Nc1nc(NC(C)=O)c(N=O)c(NC(C)=O)n1`: greater than 200 µM and 115 µM.
For the molecule `NC(=O)NO`, the result was inactive and the IC50 is 112 µM.
Consider `Cc1ccc(S(=O)(=O)C2c3nc4ccccc4cc3-c3nc4ccccc4nc32)cc1` (configuration not stated), for which the EC50 was greater than 32.4 µM and the IC50 is greater than 32.4 µM.
Regarding `CC(=O)NNc1nc(C)c(C(=O)/C=C/c2ccc(NC(C)=O)cc2)s1`, the EC50 is greater than 28.2 µM and the IC50 was greater than 28.2 µM.
`N#Cc1c(-c2ccccc2)nc(-c2ccccc2)sc1=S`: the EC50 is greater than 100 µM and the IC50 was greater than 100 µM.
Regarding `CCOC(=O)/C(C#N)=C/c1cccc(Br)c1`, the outcome was inactive.
Take `OC(Cc1ccc2ccccc2n1)(C(F)(F)F)C(F)(F)F`: the EC50 was greater than 200 µM and the IC50 is greater than 200 µM.
As for `Cc1ncc([N+](=O)[O-])n1CC(O)Cn1ccnc1[N+](=O)[O-]` (configuration not stated), the EC50 was greater than 200 µM and the 50% inhibitory concentration (IC50) was greater than 200 µM.
For `COc1ccccc1NC(=O)CC(=O)n1nc(C)c(N=Nc2ccccc2C(=O)O)c1C`, the EC50 was greater than 302 µM and the IC50 worked out at 245 µM.
The matching figures for `OC1COc2ccc(Cl)cc2CSC1` (configuration not stated): greater than 200 µM and 166 µM.
The matching figures for `CCOC(=O)NC(NC(C)CC)(C(F)(F)F)C(F)(F)F` (configuration not stated): greater than 200 µM and greater than 200 µM.
The matching figures for `O=C(NS(=O)(=O)Nc1ccccc1)OCc1ccccc1`: greater than 200 µM and greater than 200 µM.
As for `CCOC(=O)C(CO)NC(=O)C1(NC(C)=O)CCCC1` (configuration not stated) (Ac-[Ac5c]-[ξS]-OEt), the EC50 was greater than 200 µM and the IC50 was greater than 200 µM.
Regarding `COC1(c2ccc(Cl)cc2)SC=C(C)n2c1noc2=O` (configuration not stated), the EC50 was greater than 200 µM and the IC50 was greater than 200 µM.
As for `CC(CNN=C(N)N)NN=C(N)N` (configuration not stated), the EC50 is greater than 200 µM and the IC50 was greater than 200 µM.
In the case of `COc1cc(C2c3cc4c(c(O)c3C(=O)C3CCC(=O)N32)OCO4)cc(OC)c1OC` (configuration not stated), the EC50 was greater than 200 µM and the IC50 worked out at 20.9 µM.
The matching figures for `C1=C2/CC[C@H](Sc3ccccc3)C2C2(CCCCC/1)OCCO2` (some centres not stated): greater than 200 µM and 38.9 µM.
As to `Clc1cc(C(c2cc(Cl)sc2Cl)c2cc(Cl)sc2Cl)c(Cl)s1`, the EC50 is greater than 50.1 µM and the IC50 was greater than 50.1 µM.
Turning to `CCCC(=O)N[C@H]1C2C3CC4C5CC(C42)C1(C)C53` (some centres not stated), the EC50 was greater than 275 µM and the 50% inhibitory concentration (IC50) is greater than 275 µM.
As for `CC1=CC(C)(C)SC(SSSC2=NC(C)=CC(C)(C)S2)=N1`, the EC50 was greater than 200 µM and the 50% inhibitory concentration (IC50) is 38.9 µM.
`CC(C)CC(NC(=O)OCc1ccccc1)C(=O)NC(Cc1ccccc1)C(=O)CCl` (stereo not drawn) (Cbz-Leu-Phe-CH2Cl; configuration not given here): the EC50 was greater than 20 µM and the IC50 was found to be 1 µM.
With `COC1/C=C/OC2(C)Oc3c(C)c(O)c4c(O)c(c(/C=N/N(C)C(C)C(O)c5ccccc5)c(O)c4c3C2=O)NC(=O)C(C)=C/C=C/C(C)C(O)C(C)C(O)C(C)C(OC(C)=O)C1C` (configuration not stated), the EC50 was greater than 200 µM and the half-inhibitory concentration (IC50) is 9.55 µM.
As for `C=C1N(C=O)C(C)(C)N(O)C1(C)C`, the EC50 is greater than 200 µM and the half-inhibitory concentration (IC50) was greater than 200 µM.
Turning to `CCOC(=O)C1C(c2ccco2)C2(C#N)C(=N)OC1(C)C2(C#N)C#N` (configuration not stated), the EC50 is greater than 200 µM and the concentration for half-maximal inhibition (IC50) is 64.6 µM.
In the same order, the values of `O=C1C=CC(=O)c2nc3c(nc21)[nH]c1ccccc13` are greater than 26.3 µM and 13.2 µM.
The matching figures for `Oc1c(C2=NNC(c3ccc(Cl)cc3Cl)C2)ccc2ccccc12` (configuration not stated): greater than 200 µM and 32.4 µM.
Consider `CCOC1CC2OC(=O)C1C=C2C(=O)OC` (configuration not stated), for which the outcome was inactive.
For `CCN1CN(c2ccccc2)C2(CCN(CCCSc3ccc(F)cc3)CC2)C1=O`, the EC50 is greater than 200 µM and the IC50 is 10 µM.
Consider `O=[N+]([O-])C(=C(c1ccccc1)c1ccccc1)[N+](=O)[O-]`, for which the result was inactive.
As for `CC(=O)NC(C)(C)C1CC=C(C)CC1` (configuration not stated), the EC50 is greater than 200 µM and the IC50 is greater than 200 µM.

Usually EC50 stands for the concentration needed to bring the measured effect to its halfway point. In general, IC50 refers to the midpoint of a concentration-inhibition curve. Read a low IC50 as greater potency in that assay.
